Results taken from ChEMBL document CHEMBL5380790 (J Med Chem, 2023).
Active and inactive are the calls of the source. The rule behind the calls is not given here.

Assays:
[1] = Volume of distribution at steady state in Cynomolgus monkey at 0.2 mg/kg, iv and measured upto 24 hrs; type: ADME, organism-based, Macaca fascicularis; details: in vivo, read-out: Vdss
GIST-430/654 = type: functional, organism-based; details: Homo sapiens, dose 35.0 mg/kg, route po, time 30.0 day
[2] = Half life in CD-1 mouse at 0.2 mg/kg, iv and measured upto 24 hrs; type: ADME, organism-based; details: in vivo
[3] = molecular target: Mast/stem cell growth factor receptor Kit (Homo sapiens, UniProt P10721, DELTA560/V654A); type: cell-based, GIST-430/654
[4] = Plasma clearance in Han Wistar rat at 0.2 mg/kg, iv and measured upto 24 hrs; type: ADME, organism-based
[5] = molecular target: Receptor-type tyrosine-protein kinase FLT3 (Homo sapiens) (UniProt P36888); test: Inhibition of FLT3 (unknown origin) at 1 uM using 33P-ATP as substrate incubated for 120 mins by radiometric kinase assay
[6] = Oral biovailability in Han Wistar rat at 30 mg/kg and measured upto 24 hrs; type: ADME, organism-based; details: in vivo
[7] = molecular target: Receptor-type tyrosine-protein kinase FLT3 (Homo sapiens) (UniProt P36888); test: Binding affinity to human FLT3 in human HEK293 cells at 1 uM by NanoBRET assay; type: cell-based
[8] = system: Mast/stem cell growth factor receptor Kit (Homo sapiens), P10721 [V560G]; test: Inhibition of recombinant human KIT V560G mutant in exon 11 using polyGT and ATP as substrate preincubated for 20 mins followed by substrate addition and measured after 240 mins by FRET assay; details: time 260.0 min
[9] = system: Mast/stem cell growth factor receptor Kit (Homo sapiens), P10721 [UNDEFINED MUTATION]; test: Inhibition of recombinant human KIT (557 to 558 residues) activating deletion mutant in exon 11 using polyGT and ATP as substrate preincubated for 20 mins followed by substrate addition and measured after 240 mins by FRET assay; details: time 260.0 min
[10] = Metabolic stability in human hepatocytes assessed as intrinsic clearance measured per million cells; type: ADME, cell-based, Hepatocyte; details: read-out: CLH
[11] = Octanol-water distribution coefficient, logD of the compound at pH 7.4; type: physicochemical
[12] = molecular target: hERG (KCNH2) potassium channel (Homo sapiens, UniProt Q12809); test: Inhibition of human ERG potassium channel transfected in HEK293 cells at holding potential -80 mV at 10 uM and measured for 5 mins by whole cell patch clamp assay; type: toxicity, cell-based; details: HEK293 cells transfected with hERG
hERG (KCNH2) potassium channel, sequence (Q12809 whole entry): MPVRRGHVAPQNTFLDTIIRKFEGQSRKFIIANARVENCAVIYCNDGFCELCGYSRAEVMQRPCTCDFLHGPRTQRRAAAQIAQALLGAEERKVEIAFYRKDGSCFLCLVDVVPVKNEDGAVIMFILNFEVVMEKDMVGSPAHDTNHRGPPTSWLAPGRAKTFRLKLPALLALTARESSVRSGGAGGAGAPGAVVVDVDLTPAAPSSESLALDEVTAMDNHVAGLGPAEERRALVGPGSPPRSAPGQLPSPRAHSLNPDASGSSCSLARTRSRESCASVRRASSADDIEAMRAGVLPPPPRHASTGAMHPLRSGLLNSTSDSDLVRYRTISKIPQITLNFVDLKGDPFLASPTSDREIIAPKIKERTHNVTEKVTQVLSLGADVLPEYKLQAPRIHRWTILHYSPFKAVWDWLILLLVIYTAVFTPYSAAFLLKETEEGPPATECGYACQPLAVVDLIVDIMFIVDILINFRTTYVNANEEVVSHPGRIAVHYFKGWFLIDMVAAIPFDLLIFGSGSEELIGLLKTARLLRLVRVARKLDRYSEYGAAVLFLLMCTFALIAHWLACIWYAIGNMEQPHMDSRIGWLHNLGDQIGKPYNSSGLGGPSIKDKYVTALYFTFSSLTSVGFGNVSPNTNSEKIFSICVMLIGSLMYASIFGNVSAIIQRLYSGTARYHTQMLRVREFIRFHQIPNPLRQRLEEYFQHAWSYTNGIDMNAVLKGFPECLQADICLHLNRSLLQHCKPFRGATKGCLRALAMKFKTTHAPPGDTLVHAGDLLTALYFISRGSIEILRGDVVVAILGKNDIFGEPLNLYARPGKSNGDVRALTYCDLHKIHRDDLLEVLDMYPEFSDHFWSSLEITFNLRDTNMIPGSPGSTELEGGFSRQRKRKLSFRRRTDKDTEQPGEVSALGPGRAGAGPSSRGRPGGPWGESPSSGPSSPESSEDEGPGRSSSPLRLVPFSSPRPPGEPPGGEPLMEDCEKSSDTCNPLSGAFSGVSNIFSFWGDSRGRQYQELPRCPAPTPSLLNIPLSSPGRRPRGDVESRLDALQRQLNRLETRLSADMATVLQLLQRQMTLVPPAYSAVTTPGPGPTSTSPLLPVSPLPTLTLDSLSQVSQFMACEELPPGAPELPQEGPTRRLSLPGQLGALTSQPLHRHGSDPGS

[13] = system: Mast/stem cell growth factor receptor Kit (Homo sapiens), P10721 [T670I]; test: Inhibition of recombinant human KIT T670I mutant in exon 14 using polyGT and ATP as substrate preincubated for 20 mins followed by substrate addition and measured after 240 mins by FRET assay; details: time 260.0 min
[14] = molecular target: T1, Mast/stem cell growth factor receptor Kit (Homo sapiens, UniProt P10721); test: Binding affinity to wild type human KIT in human HEK293 cells at 1 uM by NanoBRET assay; type: cell-based
Target sequence in this assay (P10721 whole entry): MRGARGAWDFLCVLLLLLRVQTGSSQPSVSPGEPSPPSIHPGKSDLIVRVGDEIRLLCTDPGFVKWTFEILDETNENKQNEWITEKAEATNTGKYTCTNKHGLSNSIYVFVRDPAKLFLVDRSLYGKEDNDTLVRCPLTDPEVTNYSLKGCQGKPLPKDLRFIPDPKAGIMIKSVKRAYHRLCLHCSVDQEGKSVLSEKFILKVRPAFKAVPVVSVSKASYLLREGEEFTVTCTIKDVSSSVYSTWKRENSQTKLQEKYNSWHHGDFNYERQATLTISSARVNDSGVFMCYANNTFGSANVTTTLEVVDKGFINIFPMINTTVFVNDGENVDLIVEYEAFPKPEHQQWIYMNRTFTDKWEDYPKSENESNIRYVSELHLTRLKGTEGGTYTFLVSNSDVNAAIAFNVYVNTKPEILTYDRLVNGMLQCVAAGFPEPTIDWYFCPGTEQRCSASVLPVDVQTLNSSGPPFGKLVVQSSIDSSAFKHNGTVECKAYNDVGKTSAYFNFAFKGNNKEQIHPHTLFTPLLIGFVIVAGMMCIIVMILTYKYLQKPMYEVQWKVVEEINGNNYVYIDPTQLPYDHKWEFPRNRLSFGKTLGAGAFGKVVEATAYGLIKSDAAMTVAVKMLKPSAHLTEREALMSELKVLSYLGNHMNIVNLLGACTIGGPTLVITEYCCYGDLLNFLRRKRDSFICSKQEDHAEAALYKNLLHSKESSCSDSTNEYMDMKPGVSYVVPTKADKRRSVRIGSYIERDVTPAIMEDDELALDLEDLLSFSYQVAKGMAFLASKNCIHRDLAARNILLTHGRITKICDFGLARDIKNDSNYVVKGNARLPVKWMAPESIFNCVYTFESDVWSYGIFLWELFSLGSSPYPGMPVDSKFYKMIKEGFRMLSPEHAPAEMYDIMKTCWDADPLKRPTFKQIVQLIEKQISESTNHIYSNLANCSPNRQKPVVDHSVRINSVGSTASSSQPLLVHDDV

[15] = molecular target: Platelet-derived growth factor receptor beta (Homo sapiens, UniProt P09619); test: Inhibition of PDGFRB (unknown origin) at 1 uM using 33P-ATP as substrate incubated for 120 mins by radiometric kinase assay
[16] = Half life in Han Wistar rat at 0.2 mg/kg, iv and measured upto 24 hrs; type: ADME, organism-based; details: in vivo
[17] = molecular target: Tyrosine-protein kinase Lck (Homo sapiens, UniProt P06239); test: Inhibition of LCK (unknown origin) at 1 uM using 33P-ATP as substrate incubated for 120 mins by radiometric kinase assay
Tyrosine-protein kinase Lck, sequence (P06239 2-509 limits assumed): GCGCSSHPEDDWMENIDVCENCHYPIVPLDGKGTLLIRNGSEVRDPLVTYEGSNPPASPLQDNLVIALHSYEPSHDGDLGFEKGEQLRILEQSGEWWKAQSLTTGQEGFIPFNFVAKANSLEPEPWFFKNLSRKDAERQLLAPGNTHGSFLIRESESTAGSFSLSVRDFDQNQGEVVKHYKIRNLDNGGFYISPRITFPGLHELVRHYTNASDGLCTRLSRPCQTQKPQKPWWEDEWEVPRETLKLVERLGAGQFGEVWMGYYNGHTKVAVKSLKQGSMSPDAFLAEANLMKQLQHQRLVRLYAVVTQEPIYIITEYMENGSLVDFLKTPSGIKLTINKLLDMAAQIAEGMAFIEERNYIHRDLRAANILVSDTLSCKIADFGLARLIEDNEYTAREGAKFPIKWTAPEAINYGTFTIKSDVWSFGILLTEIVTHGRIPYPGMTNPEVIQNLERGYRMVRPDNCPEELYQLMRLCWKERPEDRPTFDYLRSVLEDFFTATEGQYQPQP

[18] = Plasma clearance in CD-1 mouse at 0.2 mg/kg, iv and measured upto 24 hrs; type: ADME, organism-based
[19] = Oral bioavailability in Cynomolgus monkey at 5 mg/kg and measured upto 24 hrs; type: ADME, organism-based, Macaca fascicularis; details: in vivo
[20] = Volume of distribution at steady state in Beagle dog at 0.2 mg/kg, iv and measured upto 24 hrs; type: ADME, organism-based, Canis lupus familiaris; details: in vivo, read-out: Vdss
[21] = Dissociation constant, pKa of the compound; type: physicochemical
[22] = molecular target: T1, Mast/stem cell growth factor receptor Kit; type: cell-based; details: gist430
Target sequence in this assay (P10721 26-976 limits assumed, stated change not applied): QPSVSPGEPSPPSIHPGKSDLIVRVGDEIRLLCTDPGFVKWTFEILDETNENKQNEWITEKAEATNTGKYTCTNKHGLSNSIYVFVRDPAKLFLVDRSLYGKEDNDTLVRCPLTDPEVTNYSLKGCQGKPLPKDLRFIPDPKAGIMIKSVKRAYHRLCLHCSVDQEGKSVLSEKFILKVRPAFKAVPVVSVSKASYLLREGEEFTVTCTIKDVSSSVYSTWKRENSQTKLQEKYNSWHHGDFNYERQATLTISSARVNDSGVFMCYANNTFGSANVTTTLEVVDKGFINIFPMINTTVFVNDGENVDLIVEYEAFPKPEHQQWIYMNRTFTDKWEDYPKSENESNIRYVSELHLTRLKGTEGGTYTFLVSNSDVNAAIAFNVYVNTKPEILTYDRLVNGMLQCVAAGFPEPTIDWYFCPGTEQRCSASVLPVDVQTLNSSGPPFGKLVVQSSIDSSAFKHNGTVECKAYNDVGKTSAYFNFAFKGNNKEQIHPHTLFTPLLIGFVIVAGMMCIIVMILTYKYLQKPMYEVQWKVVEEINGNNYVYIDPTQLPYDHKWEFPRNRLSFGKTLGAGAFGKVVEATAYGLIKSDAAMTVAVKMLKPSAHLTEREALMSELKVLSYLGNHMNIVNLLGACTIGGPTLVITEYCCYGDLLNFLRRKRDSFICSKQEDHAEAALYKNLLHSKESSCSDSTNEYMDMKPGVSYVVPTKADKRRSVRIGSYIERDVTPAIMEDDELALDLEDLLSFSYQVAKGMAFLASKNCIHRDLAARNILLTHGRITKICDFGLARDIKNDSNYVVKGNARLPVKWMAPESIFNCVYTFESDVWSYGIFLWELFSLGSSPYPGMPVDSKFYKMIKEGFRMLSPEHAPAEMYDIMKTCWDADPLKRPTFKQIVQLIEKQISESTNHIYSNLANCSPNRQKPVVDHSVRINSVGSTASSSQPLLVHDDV

[23] = Volume of distribution at steady state in Han Wistar rat at 0.2 mg/kg, iv and measured upto 24 hrs; type: ADME, organism-based; details: in vivo, read-out: Vdss
[24] = Plasma clearance in Cynomolgus monkey at 0.2 mg/kg, iv and measured upto 24 hrs; type: ADME, organism-based, Macaca fascicularis
[25] = Plasma clearance in Beagle dog at 0.2 mg/kg, iv and measured upto 24 hrs; type: ADME, organism-based, Canis lupus familiaris
[26] = molecular target: T2, Receptor-type tyrosine-protein kinase FLT3 (Homo sapiens, UniProt P36888); test: Inhibition of FLT3 (unknown origin) using 33P-ATP as substrate incubated for 120 mins by radiometric kinase assay
T2 sequence (P36888 whole entry): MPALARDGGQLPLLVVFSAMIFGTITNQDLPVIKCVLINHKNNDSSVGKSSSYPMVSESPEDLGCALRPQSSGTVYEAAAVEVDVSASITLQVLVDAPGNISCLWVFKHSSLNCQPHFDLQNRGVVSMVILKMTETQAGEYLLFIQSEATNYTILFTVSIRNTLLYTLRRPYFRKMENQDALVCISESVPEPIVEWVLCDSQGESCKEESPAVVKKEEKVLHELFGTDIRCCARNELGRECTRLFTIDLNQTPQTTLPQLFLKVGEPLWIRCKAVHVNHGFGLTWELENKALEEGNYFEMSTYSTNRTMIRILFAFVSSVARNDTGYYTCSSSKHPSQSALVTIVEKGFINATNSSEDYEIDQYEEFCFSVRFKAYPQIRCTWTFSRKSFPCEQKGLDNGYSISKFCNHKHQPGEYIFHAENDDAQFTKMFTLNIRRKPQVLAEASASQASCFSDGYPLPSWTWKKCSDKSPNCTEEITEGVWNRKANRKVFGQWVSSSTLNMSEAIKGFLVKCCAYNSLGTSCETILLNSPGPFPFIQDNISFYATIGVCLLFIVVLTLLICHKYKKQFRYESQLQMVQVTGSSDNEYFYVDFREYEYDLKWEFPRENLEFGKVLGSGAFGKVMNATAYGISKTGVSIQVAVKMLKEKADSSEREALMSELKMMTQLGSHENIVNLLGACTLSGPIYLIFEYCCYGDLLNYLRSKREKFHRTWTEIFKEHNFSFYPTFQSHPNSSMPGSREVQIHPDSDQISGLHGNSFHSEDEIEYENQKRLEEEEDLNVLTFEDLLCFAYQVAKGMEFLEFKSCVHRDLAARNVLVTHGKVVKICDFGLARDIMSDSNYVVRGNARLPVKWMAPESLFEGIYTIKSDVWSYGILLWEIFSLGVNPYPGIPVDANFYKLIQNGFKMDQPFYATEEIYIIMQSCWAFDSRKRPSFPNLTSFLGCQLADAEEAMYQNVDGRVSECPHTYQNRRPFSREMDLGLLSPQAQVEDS

[27] = Half life in Beagle dog at 0.2 mg/kg, iv and measured upto 24 hrs; type: ADME, organism-based, Canis lupus familiaris; details: in vivo
[28] = molecular target: T1, Mast/stem cell growth factor receptor Kit; test: Inhibition of wild type KIT (unknown origin) using 33P-ATP as substrate incubated for 120 mins by radiometric kinase assay
Target sequence in this assay (P10721 whole entry): as the sequence (P10721 whole entry) above

[29] = molecular target: Macrophage colony-stimulating factor 1 receptor (Homo sapiens, UniProt P07333); test: Inhibition of CSF1R (unknown origin) using 33P-ATP as substrate incubated for 120 mins by radiometric kinase assay
Macrophage colony-stimulating factor 1 receptor, sequence (P07333 whole entry): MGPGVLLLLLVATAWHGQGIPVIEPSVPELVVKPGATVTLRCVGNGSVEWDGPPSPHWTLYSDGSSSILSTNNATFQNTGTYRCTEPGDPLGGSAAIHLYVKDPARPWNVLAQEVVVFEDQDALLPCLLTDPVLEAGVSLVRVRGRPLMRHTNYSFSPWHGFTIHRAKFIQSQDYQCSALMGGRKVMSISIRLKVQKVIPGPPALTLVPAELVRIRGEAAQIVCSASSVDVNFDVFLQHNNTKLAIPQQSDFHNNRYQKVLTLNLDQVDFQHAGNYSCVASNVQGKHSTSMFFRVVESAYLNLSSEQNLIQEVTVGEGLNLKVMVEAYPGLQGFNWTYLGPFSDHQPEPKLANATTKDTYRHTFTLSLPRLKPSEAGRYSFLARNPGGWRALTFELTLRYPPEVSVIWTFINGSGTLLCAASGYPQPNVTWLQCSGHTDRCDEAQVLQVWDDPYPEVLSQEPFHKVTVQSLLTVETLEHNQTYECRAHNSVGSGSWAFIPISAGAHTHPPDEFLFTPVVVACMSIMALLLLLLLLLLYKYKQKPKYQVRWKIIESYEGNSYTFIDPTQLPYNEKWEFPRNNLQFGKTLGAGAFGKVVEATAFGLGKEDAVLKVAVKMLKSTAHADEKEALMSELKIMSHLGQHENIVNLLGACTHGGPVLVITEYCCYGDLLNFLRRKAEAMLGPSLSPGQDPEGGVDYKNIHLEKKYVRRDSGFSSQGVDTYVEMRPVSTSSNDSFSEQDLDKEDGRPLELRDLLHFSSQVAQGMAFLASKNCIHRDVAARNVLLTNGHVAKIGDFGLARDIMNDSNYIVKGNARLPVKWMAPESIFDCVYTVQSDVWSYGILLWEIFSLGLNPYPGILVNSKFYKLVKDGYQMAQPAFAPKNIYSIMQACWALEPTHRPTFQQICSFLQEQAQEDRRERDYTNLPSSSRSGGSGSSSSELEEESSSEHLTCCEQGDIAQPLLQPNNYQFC

Q: Which results are given for `Cn1cc(-c2ccc(CNc3cc(-c4cnc5cc(OCCCN6CCCC6)ccn45)ncn3)cc2)cn1` [IDRX-42]?
A: Vd [1]: 12.4 L/kg; Activity (GIST-430/654): Active; half-life [2]: 6.9 h; IC50 [3]: 48 nM; clearance [4]: 36.7 mL/min/kg; inhibition [5]: > 80%; bioavailability [6]: 63%; Activity [7]: 45%; inhibition [8]: Active; inhibition [9]: Active; hepatocyte CLint [10]: 21 µL/min/1e6 cells; logD [11]: 2.6; inhibition at 5 min, 10 µM [12]: -86%; inhibition [13]: inactive; Activity [14]: 65%; inhibition [15]: > 80%; half-life [16]: 6.8 h; inhibition [17]: > 80%; clearance [18]: 18.3 mL/min/kg; bioavailability [19]: 31%; Vd [20]: 34.6 L/kg; pKa [21]: 9.7; IC50 [22]: 4 nM; Vd [23]: 23.2 L/kg; clearance [24]: 36.7 mL/min/kg; clearance [25]: 36.7 mL/min/kg; IC50 [26]: 141 nM; half-life [27]: 9.6 h; IC50 [28]: 44 nM; IC50 [29]: 5.5 nM
